Key:
[1] = Microcentrifuge dissolution test (simulated gastric buffer, then FaSSIF); assay type: physicochemical; details: 37° C.
Experimental: Dispersion 1 was evaluated in vitro using a microcentrifuge dissolution test using the following procedure. First, a sample of Dispersion 1 was placed in a microcentrifuge tube. A simulated gastric buffer (GB) solution consisting of 0.01 N HCl in water at 37° C. was added to each tube, so that the concentration if all of the active in the dispersion had dissolved would have been 2000 μg/mL. The tubes were vortexed for 1 minute. All work was performed in a temperature-controlled box at 37° C. After 9 minutes, the tubes were centrifuged at 13,000 rpm for 1 minute. A 50 μL centrifuged supernatant aliquot was removed from each tube and added to an HPLC vial containing 250 μL HPLC grade methanol. Following sample removal, the tubes were vortexed for 30 seconds. The tubes were allowed to sit undisturbed until the next sample, repeating the centrifuging/sampling/vortexing steps described above, to obtain a sample at 25 minutes following addition of the GB solution to the sample.
After 30 minutes in the GB solution, 0.8 mL of double strength (1 wt %) simulated intestinal fluid powder (SIF powder, available from Phares AG, Basel, Switzerland) in double strength phosphate buffer saline (0.166 M NaCl, 0.040 M Na2HPO4, and 0.093 M KH2PO4), adjusted to pH 6.5 was added to each tube. The tubes were vortexed for 1 minute. The testing solution composition was used to model fasted simulated intestinal fluid (FaSSIF). The FaSSIF powder contains bile salts (taurocholate) and phospholipids (lecithin) in a molar ratio of 4 to 1, along with buffers and osmotic adjusters. The concentration of active in each tube was 1000 μg/mL if all of the active had dissolved. After 3 minutes in the FaSSIF solution, the tubes were centrifuged at 13,000 rpm for 1 minute. A 50 μL centrifuged supernatant aliquot was removed, as previously described, and added to an HPLC vial containing 250 μL of methanol. The tube then was vortexed for 30 seconds, and left undisturbed until the next time point. The procedure was repeated to collect samples at 10, 20, 40, 90, and 180 minutes after addition of FaSSIF to the vials.
The dissolved concentrations of active were measured by HPLC. HPLC was performed using a Zorbax® SB-C18, 4.6×150 mm, 5 μm column at 30° C., and a mobile phase comprising 20 mM ammonium acetate/acetonitrile (43/57 vol/vol). The flow rate was 1.0 mL/min, 10 μL of each solution was injected, and the absorbance was measured at 332 nm.
Dispersion 2 was tested using the same procedures described above. Control 1 was tested using the same procedures described above.

[2] = cited from earlier work

- Dissolved Active Concentration ([1]; 10 minutes, GB solution (0.01 N HCl), 2000 μg/mL if all dissolved): 1,847.8 μg/mL
- Dissolved Active Concentration ([1]; 25 minutes, GB solution (0.01 N HCl), 2000 μg/mL if all dissolved): 1,818.5 μg/mL
- Dissolved Active Concentration ([1]; 34 minutes (4 min after addition of FaSSIF, pH 6.5), 1000 μg/mL if all dissolved): 58.0 µg/mL
- Dissolved Active Concentration ([1]; 40 minutes (10 min after addition of FaSSIF, pH 6.5), 1000 μg/mL if all dissolved): 68.1 µg/mL
- Dissolved Active Concentration ([1]; 50 minutes (20 min after addition of FaSSIF, pH 6.5), 1000 μg/mL if all dissolved): 51.4 µg/mL
- Dissolved Active Concentration ([1]; 70 minutes (40 min after addition of FaSSIF, pH 6.5), 1000 μg/mL if all dissolved): 55.1 µg/mL
- Dissolved Active Concentration ([1]; 120 minutes (90 min after addition of FaSSIF, pH 6.5), 1000 μg/mL if all dissolved): 67.8 µg/mL
- Dissolved Active Concentration ([1]; 210 minutes (180 min after addition of FaSSIF, pH 6.5), 1000 μg/mL if all dissolved): 55.1 µg/mL
SMILES: C#Cc1cccc(Nc2ncnc3cc(OCCOC)c(OCCOC)cc23)c1 [Erlotinib, N-(3-ethynylphenyl)-6,7-bis(2-methoxyethoxy) quinazolin-4-amine]
- solubility in phosphate buffered saline (pH 6.5) [2]: about 1 μg/mL

Source: patent publication US10322126B2, “Solid dispersions of low-water solubility actives” (Bend Research, Inc., priority 2013, dated 2019)
